Results: patent US12516053B2, “Bcl-2 inhibitors” (BEIGENE, LTD., priority 2019, dated 2026)
Read-outs that look alike come from different tables or passages of the source.

How the values were obtained:
[1] = system: Molt-4 (Bcl-xL-dependent ALL cell line); assay: Molt-4 cell proliferation assay; assay type: cell-based; conditions: Homo sapiens, MOLT-4; CellTiter-GLO; read-out: Cellular proliferation assay (IC50, nM) Molt-4
Text: Molt-4 Cell Proliferation Assay:
Each compound was serially diluted with 10 1M as the maximum concentration. The anti-proliferative IC50s of these compounds were similarly determined as a percentage of viable cells upon treatment compared to the untreated control using CellTiter-GLO luminescent assay.

[2] = system: RS4;11 (BCL-2 dependent acute lymphoblastic leukemia cell line); assay: RS4;11 cell proliferation assay; assay type: cell-based; conditions: CellTiter-GLO, read-out: Cellular proliferation assay (IC50, nM) RS4
Method: RS4;11 Cell Proliferation Assay:
Each compound was serially diluted with 1 μM as the maximum concentration. To test the apoptotic effect of the compounds, the cells were seeded at 50,000 in 180 μl per well in 96-well plates and treated with 10-point dilution series of each compound for 48 hrs at 37° C. Cell viability was assessed after the treatment using CellTiter-GLO luminescent assay (Promega) according to the manufacturer's recommendations. Briefly, 30 μl of CellTiter-GLO reagent was added into 200 μl of cell culture, Mixture was agitated on an orbital shaker for 5 mins to ensure cell lysis followed by 7 mins incubation at room temperature to allow development and stabilization of luminescent signals, which corresponded to quantity of ATP and thus the quantity of metabolically active cells. Luminescent signals were measured using PHERAstar FS reader (BMG). Mean IC50 values for cell viability were determined with GraphPad Prism software.

BA/F3-BCL-2 G101V cells = BA/F3-BCL-2 G101V cells (Homo sapiens, UniProt P10415, G101V, cells depend on it); assay: BA/F3 cell proliferation assay, Bcl-2 G101V; assay type: cell-based, Murine; conditions: 24 hrs treatment, 3% FBS, CellTiter-Glo, geometric mean of 3 experiments; read-out: Cellular proliferation assay (IC50, nM) Bcl-2 G101V; BaF3 cell
Method: (§1) BA/F3 cell Proliferation Assay:
(§2) The cells were treated with a 10-point dilution series of compounds for 24 hrs. After the compound treatment, 30 μl of CellTiter-Glo reagent was added in each well. The effects on proliferation were determined using Cell TiterGlo reagent (Promega) according to the manufacturer's instructions. Luminescent signals were measured using PHERAstar FS plate reader (BMG Labtech). ICS50 values for cell viability were determined with GraphPad Prism software and were the geometric mean of 3 independent experiments.

[3] = target: Recombinant human Bcl-2 protein (Homo sapiens, UniProt P10415); assay: Bcl-2 TR-FRET assay; assay type: binding
Method: Compounds disclosed herein were tested for blocking of Bcl-2 protein with its ligand in an assay based on Time-Resolved Fluorescence Resonance Energy Transfer (TR-FRET) methodology. Recombinant human 0.05 nM Bcl-2 protein was pre-incubated with a serial dilution of compounds disclosed herein (top final concentration is 1 uM or 0.1 uM or 0.02 uM or 0.01 uM, 10 points) at room temperature for 0.5 hour in an assay buffer containing 20 mM potassium phosphate buffer, pH 7.5, 50 mM NaCl, 1 mM EDTA, 0.05% Tween-20, 0.01% BSA. […] The inhibition percentage of Bcl-2 interaction with its ligand in presence of increasing concentrations of compounds was calculated based on the TR-FRET signals. The IC50 for each compound was derived from fitting the data to the four-parameter logistic equation by Graphpad Prism software or Dotmatics.

BA/F3-BCL-2 cells = BA/F3-BCL-2 cells (Homo sapiens, UniProt P10415); assay: BA/F3 cell proliferation assay, BCL-2 wild type; assay type: cell-based, Murine
Method: as §1, §2

[4] = target: recombinant human Bcl-2-G101V protein (Homo sapiens, UniProt P10415, G101V); assay: Bcl-2-G101V TR-FRET assay; assay type: binding
Text: The IC50 for each compound was derived from fitting the data to the four-parameter logistic equation by Graphpad Prism software or Dotmatics.

[5] = Homo sapiens, RS4-11, 48 hrs treatment
[6] = TR-FRET, 0.05 nM Bcl-2, FITC labeled Bak peptide 0.5 nM, read-out: Biochemical assay (IC50, nM) Bcl-2 WT
[7] = 24 hrs treatment, 3% FBS, CellTiter-Glo, geometric mean of 3 experiments; read-out: Cellular proliferation assay (IC50, nM) Bcl-2 WT; BaF3 cell
[8] = TR-FRET, 0.1 nM Bcl-2-G101V, FITC labeled Bak peptide 5 nM, read-out: Biochemical assay (IC50, nM) Bcl-2 G101V

In the case of `CC1(C)CCC(CN2CCN(c3ccc(C(=O)NS(=O)(=O)c4ccc(NCC5CCOCC5)c([N+](=O)[O-])c4)c(Oc4cnc5[nH]ccc5c4)c3)CC2)=C(c2ccc(Cl)cc2)C1` [ABT-199, Venetoclax, reference compound], the IC50 [1] is reported as 2570 nM and the IC50 [2, 5] is reported as 4.2 nM.
`[2H]C1([2H])CC2(CC(N3CCC[C@H]3c3ccccc3C(C)C)C2)CC([2H])([2H])N1c1ccc(C(=O)NS(=O)(=O)c2cc3c(c([N+](=O)[O-])c2)N[C@H](C[C@H]2CC[C@H](O)CC2)CO3)c(Oc2cnc3[nH]ccc3c2)c1` [Example A6, 2-((1H-pyrrolo[2,3-b]pyridin-5-yl)oxy)-N—(((R)-3-(((1r,4R)-4-hydroxycyclohexyl)methyl)-5-nitro-3,4-dihydro-2H-benzo[b][1,4]oxazin-7-yl)sulfonyl)-4-(2-((S)-2-(2-isopropylphenyl)pyrrolidin-1-yl)-7-azaspiro[3,5]nonan-7-yl-6,6,8,8-d4)benzamide] gave a GI50 (BA/F3-BCL-2 G101V cells) of 21.1 nM, an IC50 [3] of 0.021 nM and an IC50 (BA/F3-BCL-2 cells; read-out: Cellular proliferation assay (IC50, nM) Bcl-2 WT; BaF3 cell; 24 hrs treatment, 3% FBS, CellTiter-Glo, geometric mean of 3 experiments) of 0.25 nM. It also gave an IC50 [4] of 0.51 nM and an IC50 [2, 5] of 1.3 nM.
Work on `[2H]C1([2H])CCC([2H])(c2ccccc2C(C)C)N1C1CC2(CCN(c3ccc(C(=O)NS(=O)(=O)c4cc5c(c([N+](=O)[O-])c4)N[C@H](C[C@H]4CC[C@H](O)CC4)CO5)c(Oc4cnc5[nH]ccc5c4)c3)CC2)C1` (stereo partly drawn) [Example A7, 2-((1H-pyrrolo[2,3-b]pyridin-5-yl)oxy)-N—(((R)-3-(((1r,4R)-4-hydroxycyclohexyl)methyl)-5-nitro-3,4-dihydro-2H-benzo[b][1,4]oxazin-7-yl)sulfonyl)-4-(2-(2-(2-isopropylphenyl)pyrrolidin-1-yl-2,5,5-d3)-7-azaspiro[3,5]nonan-7-v)benzamide] yielded a GI50 (BA/F3-BCL-2 G101V cells) of 35.8 nM, an IC50 [3, 6] of 0.021 nM and an IC50 (BA/F3-BCL-2 cells; [7]) of 0.38 nM. The IC50 [4, 8] was 0.92 nM and the IC50 [2, 5] was 1.5 nM.
`CC(C)c1ccccc1[C@@H]1CCCN1C1CC2(CCN(c3ccc(C(=O)NS(=O)(=O)c4ccc(NCC5(F)CCOCC5)c([N+](=O)[O-])c4)c(N4CCOc5nc6[nH]ccc6cc54)c3)CC2)C1` [Example B4, (S)-2-(2,3-dihydropyrrolo[3′,2′:5,6]pyrido[2,3-b][1,4]oxazin-1(6H)-yl)-N-((4-(((4-fluorotetrahydro-2H-pyran-4-yl)methyl)amino)-3-nitrophenyl)sulfonyl)-4-(2-(2-(2-isopropylphenyl)pyrrolidin-1-yl)-7-azaspiro[3,5]nonan-7-yl)benzamide] showed an IC50 [1] of 1420 nM, an IC50 [3, 6] of 0.018 nM and an IC50 [4, 8] of 1.2 nM. For the same compound, the IC50 [2, 5] was 0.58 nM.
`CC(C)c1ccccc1[C@@H]1CCCN1C1CC2(CCN(c3ccc(C(=O)NS(=O)(=O)c4ccc(NC[C@H]5CC[C@](C)(O)CC5)c([N+](=O)[O-])c4)c(N4C[C@@H](C)Oc5nc6[nH]ccc6cc54)c3)CC2)C1` [Example B5, N-((4-((((1r,4r)-4-hydroxy-4-methylcyclohexyl)methyl)amino)-3-nitrophenyl)sulfonyl)-4-(2-((S)-2-(2-isopropylphenyl)pyrrolidin-1-yl)-7-azaspiro[3,5]nonan-7-yl)-2-((R)-3-methyl-2,3-dihydropyrrolo[3′,2′:5,6]pyrido[2,3-b][1,4]oxazin-1(6H)-yl)benzamide] gave a GI50 (BA/F3-BCL-2 G101V cells) of 8.9 nM, an IC50 [3, 6] of 0.025 nM and an IC50 (BA/F3-BCL-2 cells; [7]) of 0.13 nM. The IC50 [4, 8] was 1.1 nM and the IC50 [2, 5] was 1 nM.
Work on `CC(C)c1ccccc1[C@@H]1CCCN1C1CC2(CCN(c3ccc(C(=O)NS(=O)(=O)c4ccc(NC[C@H]5CC[C@](C)(O)CC5)c([N+](=O)[O-])c4)c(N4C[C@H](C)Oc5nc6[nH]ccc6cc54)c3)CC2)C1` [Example B6, N-((4-((((1r,4r)-4-hydroxy-4-methylcyclohexyl)methyl)amino)-3-nitrophenyl)sulfonyl)-4-(2-((S)-2-(2-isopropylphenyl)pyrrolidin-1-yl)-7-azaspiro[3,5]nonan-7-yl)-2-((S)-3-methyl-2,3-dihydropyrrolo[3′,2′:5,6]pyrido[2,3-b][1,4]oxazin-1(6H)-yl)benzamide] yielded a GI50 (BA/F3-BCL-2 G101V cells) of 31.9 nM, an IC50 [3, 6] of 0.027 nM and an IC50 (BA/F3-BCL-2 cells; [7]) of 1.1 nM. It also gave an IC50 [4, 8] of 1.2 nM and an IC50 [2, 5] of 0.34 nM.
Work on `CC(C)c1ccccc1[C@@H]1CCCN1C1CC2(CCN(c3ccc(C(=O)NS(=O)(=O)c4cc5c(c([N+](=O)[O-])c4)N[C@H](C[C@H]4CC[C@H](O)CC4)CO5)c(N4C[C@@H](C)Oc5nc6[nH]ccc6cc54)c3)CC2)C1` [Example B7, N—(((R)-3-(((1r,4R)-4-hydroxycyclohexyl)methyl)-5-nitro-3,4-dihydro-2H-benzo[b][1,4]oxazin-7-yl)sulfonyl)-4-(2-((S)-2-(2-isopropylphenyl)pyrrolidin-1-yl)-7-azaspiro[3,5]nonan-7-yl)-2-((R)-3-methyl-2,3-dihydropyrrolo[3′,2′:5,6]pyrido[2,3-b][1,4]oxazin-1(6H)-yl)benzamide] yielded a GI50 (BA/F3-BCL-2 G101V cells) of 11.2 nM, an IC50 [3, 6] of 0.048 nM and an IC50 (BA/F3-BCL-2 cells; [7]) of 0.18 nM. It also gave an IC50 [4, 8] of 1.5 nM and an IC50 [2, 5] of 0.8 nM.
For `CC(C)c1ccccc1[C@@H]1CCCN1C1CC2(CCN(c3ccc(C(=O)NS(=O)(=O)c4cc5c(c([N+](=O)[O-])c4)N[C@H](CC4CCC(O)CC4)CO5)c(N4C[C@H](C)Oc5nc6[nH]ccc6cc54)c3)CC2)C1` (stereo partly drawn) [Example B8, N—(((R)-3-(((1r,4R)-4-hydroxycyclohexyl)methyl)-5-nitro-3,4-dihydro-2H-benzo[b][1,4]oxazin-7-yl)sulfonyl)-4-(2-((S)-2-(2-isopropylphenyl)pyrrolidin-1-yl)-7-azaspiro[3,5]nonan-7-yl)-2-((S)-3-methyl-2,3-dihydropyrrolo[3′,2′:5,6]pyrido[2,3-b][1,4]oxazin-1(6H)-yl)benzamide], the GI50 (BA/F3-BCL-2 G101V cells) was 41.2 nM, the IC50 [3, 6] was 0.055 nM and the IC50 (BA/F3-BCL-2 cells; [7]) was 0.65 nM. For the same compound, the IC50 [4, 8] was 3.3 nM and the IC50 ([2]; 48 hrs treatment) was 0.7 nM.
`CC(C)c1ccccc1[C@@H]1CCCN1C1CC2(CCN(c3ccc(C(=O)NS(=O)(=O)c4cc5c(c([N+](=O)[O-])c4)N[C@H](C[C@H]4CC[C@H](O)CC4)CO5)c(N4CCCOc5nc6[nH]ccc6cc54)c3)CC2)C1` [Example B9, 2-(3,4-dihydro-2H-pyrrolo[3′,2′:5,6]pyrido[2,3-b][1,4]oxazepin-1(7H)-yl)-N—(((R)-3-(((1R,4R)-4-hydroxycyclohexyl)methyl)-5-nitro-3,4-dihydro-2H-benzo[b][1,4]oxazin-7-yl)sulfonyl)-4-(2-((S)-2-(2-isopropylphenyl)pyrrolidin-1-yl)-7-azaspiro[3,5]nonan-7-yl)benzamide] was tested, and the GI50 (BA/F3-BCL-2 G101V cells) was 34.9 nM, the IC50 [3, 6] was 0.038 nM and the IC50 (BA/F3-BCL-2 cells; [7]) was 0.83 nM. It also gave an IC50 [4, 8] of 3.3 nM and an IC50 [2, 5] of 0.5 nM.
With `CC(C)c1ccccc1[C@@H]1CCCN1C1CC2(CCN(c3ccc(C(=O)NS(=O)(=O)c4ccc(NC[C@H]5CC[C@](C)(O)CC5)c([N+](=O)[O-])c4)c(N4c5cc6cc[nH]c6nc5OCC4C)c3)CC2)C1` (stereo partly drawn) [Example B10, N-((4-((((1R,4R)-4-hydroxy-4-methylcyclohexyl)methyl)amino)-3-nitrophenyl)sulfonyl)-4-(2-((S)-2-(2-isopropylphenyl)pyrrolidin-1-yl)-7-azaspiro[3,5]nonan-7-yl)-2-(2-methyl-2,3-dihydropyrrolo[3′2′:5,6]pyrido[2,3-b][1,4]oxazin-1(6H)-yl)benzamide] the IC50 [1] was over 10000 nM, the IC50 [3, 6] was 0.04 nM and the IC50 [4, 8] was 1.6 nM. The IC50 [2, 5] was 1 nM.
